Patent US8877715B2, “Cytotoxic conjugates having neuropeptide Y receptor binding compound” (priority 2009, dated 2014)

Test system: Human MCF-7 breast carcinoma cells
Assay: In vivo growth assay, MCF-7 xenograft (Study A and Study B)
Parameters: species or system nude mice
Settings: Study A
Experimental: Once-weekly treatments were administered for three weeks by tail vein injection except in cases where poor drug solubility or tail necrosis necessitated intraperitoneal injections. […] Example 93 was evaluated in Study B at 55.45 mg/kg, 110.9 mg/kg and 221.8 mg/kg. Antitumor activity was assessed by tumor growth delay (“TGD”) defined as the difference in median time to endpoint tumor size in a treatment group compared to the control group, and by tumor growth inhibition (“TGI”) defined as the difference between median tumor volumes of the treatment and control groups on a study day providing a balance between measurable group responses and large group sizes. Toxicity was evaluated by body weight measurements and clinical observations.
Female nude mice (nu/nu, Harlan) were 10-11 weeks old and had body weight ranges of
The animals were fed ad libitum water (reverse osmosis, 1 ppm Cl) and NIH 31 Modified and Irradiated Lab Diet® consisting of 18.0% crude protein, 5.0% crude fat, and 5.0% crude fiber. The mice were housed on irradiated ALPHA-Dri® Bed-o′ Cobs® Laboratory Animal Bedding in static microisolators on a 12-hour light cycle at 21-22° C.
Human MCF-7 breast carcinoma cells were maintained in RPMI 1640 medium containing 100 units/mL penicillin G sodium, 100 μg/mL streptomycin sulfate, and 25 μg/mL gentamicin. The medium was supplemented with 10% heat-inactivated fetal bovine serum and 2 mM glutamine. Additional buffering was provided with 10 mM HEPES and 0.075% sodium bicarbonate. The tumor cells were cultured in tissue culture flasks in a humidified incubator at 37° C. in an atmosphere of 95% air and 5% CO2.
Three to seven days prior to cell injection, a pellet containing 17-β-estradiol (0.36 mg, 60-day release, Innovative Research of America) was implanted subcutaneously between the scapulae of each mouse.
The MCF-7 tumor cells used for implantation were harvested during log phase growth and resuspended in phosphate-buffered saline at 5×10^7 cells/mL. […] Tumors were monitored twice weekly and then daily as their volumes approached 80-120 mm^3. […] Thus, a separate study (“Study B”) was set up comprising six groups (n=10) of animals. In this study, 17 days elapsed between cell implantation and group assignment. […] Tumor size, in mm^3, was calculated from:
[formula] where w=width and l=length in mm of the MCF-7 tumor. Tumor weight may be estimated with the assumption that 1 mg is equivalent to 1 mm^3 of tumor volume.
Example 93 dosing solutions were prepared fresh in 0.1N acetic acid for each day of treatment.
Camptothecin (Lot No. 034K3648, Sigma) stock solutions were made from 60% DMA and 40% Tween 80 and stored at room temperature during the study. Dosing solutions were prepared fresh on each day of dosing by diluting the stocks 1:20 in saline.
The treatment plans are summarized in Table 3A for Study A and Table 3B for Study B.
All treatments and vehicles were given once-weekly for three doses (“qwk×3”). Group 1 mice received no gavage and no injections, and served as a control for tumor progression and estrogen toxicity. Group 2 animals received vehicle.
Each treatment dose was administered in a volume of 0.2 mL per 20 g of body weight, and was scaled to the body weight of the animal.
Median tumor growth curves of FIGS. 1-3 show median tumor volumes as a function of time. When an animal exited the study due to tumor size, the final tumor volume recorded for the animal was included with the data used to calculate the group median tumor volume at subsequent time points. Curves were truncated after 50% of animals in a group had exited the study.

Which “tumor growth inhibition (TGI)” value (Day 18) does the source give for “[camptothecin-rvD-Asp-Suc-Tyr^1, Nle^17, 4Hyp^34]hNPY(1-36)-NH2 [Example 92]” here?
Its value is “dose-related, significantly so at 110.6 and 221.2 mg/kg, and of potential therapeutic value at the higher dose level”.

And the mean tumor volume (G 7: 55.3 mg/kg qwk x 3, D 1)?
Its mean tumor volume is 124.1 mm^3.

What about the mean tumor volume (G 7: 55.3 mg/kg qwk x 3, D 4) of the same substance?
The mean tumor volume was 112.3 mm^3.

What about the mean tumor volume (G 7: 55.3 mg/kg qwk x 3, D 7) of the same substance?
The mean tumor volume was 139.2 mm^3.

And the mean tumor volume (G 7: 55.3 mg/kg qwk x 3, D 11)?
Its mean tumor volume is 168.4 mm^3.

What about the mean tumor volume (G 7: 55.3 mg/kg qwk x 3, D 14) of the same substance?
Its mean tumor volume is 250.9 mm^3.

What about the mean tumor volume (G 7: 55.3 mg/kg qwk x 3, D 18) of the same substance?
The mean tumor volume was 242.9 mm^3.

And the mean tumor volume (G 7: 55.3 mg/kg qwk x 3, D 21)?
Its mean tumor volume is 262.5 mm^3.

And the mean tumor volume (G 7: 55.3 mg/kg qwk x 3, D 25)?
Its mean tumor volume is 385.9 mm^3.

And the mean tumor volume (G 7: 55.3 mg/kg qwk x 3, D 28)?
Its mean tumor volume is 505.1 mm^3.

And the mean tumor volume (G 7: 55.3 mg/kg qwk x 3, D 32)?
The mean tumor volume was 532.2 mm^3.

And the mean tumor volume (G 7: 55.3 mg/kg qwk x 3, D 35)?
The mean tumor volume was 631 mm^3.

What about the mean tumor volume (G 7: 55.3 mg/kg qwk x 3, D 39) of the same substance?
Its mean tumor volume is 978 mm^3.

What about the mean tumor volume (G 8: 110.6 mg/kg qwk x 3, D 1) of the same substance?
The mean tumor volume was 124.1 mm^3.

What about the mean tumor volume (G 8: 110.6 mg/kg qwk x 3, D 4) of the same substance?
The mean tumor volume was 130.8 mm^3.

What about the mean tumor volume (G 8: 110.6 mg/kg qwk x 3, D 7) of the same substance?
Its mean tumor volume is 127.5 mm^3.

What about the mean tumor volume (G 8: 110.6 mg/kg qwk x 3, D 11) of the same substance?
The mean tumor volume was 146 mm^3.

What about the mean tumor volume (G 8: 110.6 mg/kg qwk x 3, D 14) of the same substance?
Its mean tumor volume is 184.6 mm^3.

And the mean tumor volume (G 8: 110.6 mg/kg qwk x 3, D 18)?
The mean tumor volume was 187.9 mm^3.

And the mean tumor volume (G 8: 110.6 mg/kg qwk x 3, D 21)?
The mean tumor volume was 216.2 mm^3.

What about the mean tumor volume (G 8: 110.6 mg/kg qwk x 3, D 25) of the same substance?
Its mean tumor volume is 337.3 mm^3.

And the mean tumor volume (G 8: 110.6 mg/kg qwk x 3, D 28)?
The mean tumor volume was 439.6 mm^3.

And the mean tumor volume (G 8: 110.6 mg/kg qwk x 3, D 32)?
The mean tumor volume was 454.8 mm^3.

What about the mean tumor volume (G 8: 110.6 mg/kg qwk x 3, D 35) of the same substance?
Its mean tumor volume is 550.5 mm^3.

What about the mean tumor volume (G 8: 110.6 mg/kg qwk x 3, D 39) of the same substance?
The mean tumor volume was 938 mm^3.

And the mean tumor volume (G 9: 221.2 mg/kg qwk x 3, D 1)?
The mean tumor volume was 124.1 mm^3.

And the mean tumor volume (G 9: 221.2 mg/kg qwk x 3, D 4)?
The mean tumor volume was 118.3 mm^3.

And the mean tumor volume (G 9: 221.2 mg/kg qwk x 3, D 7)?
The mean tumor volume was 118.9 mm^3.

What about the mean tumor volume (G 9: 221.2 mg/kg qwk x 3, D 11) of the same substance?
Its mean tumor volume is 118.8 mm^3.

What about the mean tumor volume (G 9: 221.2 mg/kg qwk x 3, D 14) of the same substance?
The mean tumor volume was 109.4 mm^3.

What about the mean tumor volume (G 9: 221.2 mg/kg qwk x 3, D 18) of the same substance?
Its mean tumor volume is 129.5 mm^3.

What about the mean tumor volume (G 9: 221.2 mg/kg qwk x 3, D 21) of the same substance?
Its mean tumor volume is 150.1 mm^3.

What about the mean tumor volume (G 9: 221.2 mg/kg qwk x 3, D 25) of the same substance?
The mean tumor volume was 172.2 mm^3.

And the mean tumor volume (G 9: 221.2 mg/kg qwk x 3, D 28)?
The mean tumor volume was 197.7 mm^3.

And the mean tumor volume (G 9: 221.2 mg/kg qwk x 3, D 32)?
Its mean tumor volume is 213.8 mm^3.

What about the mean tumor volume (G 9: 221.2 mg/kg qwk x 3, D 35) of the same substance?
Its mean tumor volume is 301.7 mm^3.

What about the mean tumor volume (G 9: 221.2 mg/kg qwk x 3, D 39) of the same substance?
The mean tumor volume was 372 mm^3.

What about the tumor regressions (highest dose level (222.6 or 221.2 mg/kg), TGD-evaluated sample) of the same substance?
Its tumor regressions is 3/5.

What about the “tumor growth delay (TGD)” value (three dose levels, qwk x 3) of the same substance?
Its value is “dose-related TGD, reaching statistical significance”.
